Read-outs that look alike come from different tables or passages of the source.
Columns and labels:
human PARP-1 = target: T1, human PARP-1 (Homo sapiens, UniProt P09874); assay: Biotin-Avidin PARP assay (biotinylated NAD auto-ribosylation, immobilized PARP); format: biochemical
T1 construct: purchased Trevigen 4667-250-01
Description: ELISA plates (96-well) were coated with recombinant human PARP-1 overnight at 4° C.
Prior to the activity assay, the plates were washed three times in PBS-T.
The control reactions were carried out in the absence of sheared DNA in order to determine background activity for the reaction(s). […] The optical density for each sample was measured at 410 nm.
The inhibitors were first dissolved in DMSO and then serially diluted in DMSO to create stock solutions which were added to the auto-ribosylation buffer to achieve the desired range of final concentrations of the inhibitors in the nanomolar to millimolar range.

PARP [1] = target: T2, PARP (Homo sapiens, UniProt P09874); assay: commercially available [32P] NAD-based PARP assay (R&D Systems); format: biochemical; settings: [32P]-NAD based kit
T2 construct: purchased R&D Systems, Inc. TA5334
T2 sequence (P09874 whole entry): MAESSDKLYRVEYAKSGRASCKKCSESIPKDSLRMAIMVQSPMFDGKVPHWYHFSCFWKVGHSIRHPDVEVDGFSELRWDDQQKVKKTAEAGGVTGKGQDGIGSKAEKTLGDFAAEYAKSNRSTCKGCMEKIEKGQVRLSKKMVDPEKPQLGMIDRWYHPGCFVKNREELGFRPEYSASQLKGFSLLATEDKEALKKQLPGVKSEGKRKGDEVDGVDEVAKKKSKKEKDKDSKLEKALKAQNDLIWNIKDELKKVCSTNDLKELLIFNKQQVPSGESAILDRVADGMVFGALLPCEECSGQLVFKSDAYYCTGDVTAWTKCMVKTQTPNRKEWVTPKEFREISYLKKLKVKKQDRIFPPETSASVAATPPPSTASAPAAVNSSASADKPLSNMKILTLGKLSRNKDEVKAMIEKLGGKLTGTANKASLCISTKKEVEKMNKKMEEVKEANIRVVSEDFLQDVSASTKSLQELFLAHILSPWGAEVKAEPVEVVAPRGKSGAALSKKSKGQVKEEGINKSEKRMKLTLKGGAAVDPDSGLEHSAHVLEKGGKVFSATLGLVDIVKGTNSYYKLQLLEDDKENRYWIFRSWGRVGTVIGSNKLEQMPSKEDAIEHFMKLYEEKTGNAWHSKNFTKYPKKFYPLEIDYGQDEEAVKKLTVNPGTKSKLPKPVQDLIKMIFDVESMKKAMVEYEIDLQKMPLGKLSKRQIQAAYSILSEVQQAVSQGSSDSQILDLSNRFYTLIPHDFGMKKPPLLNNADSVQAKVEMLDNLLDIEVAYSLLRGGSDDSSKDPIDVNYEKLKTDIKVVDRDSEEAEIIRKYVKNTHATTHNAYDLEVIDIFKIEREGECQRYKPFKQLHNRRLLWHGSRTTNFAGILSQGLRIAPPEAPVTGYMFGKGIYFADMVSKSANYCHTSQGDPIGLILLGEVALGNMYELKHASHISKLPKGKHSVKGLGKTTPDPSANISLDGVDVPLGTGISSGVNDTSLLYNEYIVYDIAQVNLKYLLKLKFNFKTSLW
Description: The present method was conducted in the presence of known PARP inhibitors of varying potencies, tested at a range of concentrations. The experiment was conducted to determine if the IC50 values generated by the assay of the present invention were in agreement with previously reported IC50 values for these compounds and IC50 values generated by a commercially available [^32P] NAD-based PARP assay (R&D Systems, Inc., Minneapolis, Minn., Cat#TA5334). [^32P]-NAD was obtained from Amersham Pharmacia Biotech, Piscataway, N.J.

PARP [2] = target: T2, PARP; settings: reported values, see footnote; read-out: IC50 cited in the Literature; cited from earlier work

T1 sequence (P09874 whole entry): as above

| IC50 (human PARP-1; PARP-1 coated on plates overnight at 4° C., 25 μM biotinylated NAD, 100 μM unlabelled NAD, sheared DNA, read-out: Biotin Avidin PARP (IC50)) | IC50 (PARP [1]) | IC50 (human PARP-1) | SMILES | IC50 (PARP [2]) |
| --- | --- | --- | --- | --- |
| 329 nM | 334 nM |  | NC(=O)c1cccc2cccc(C(=O)O)c12 [Compound B, 8-carboximido-napthalene-1-carboxylic acid] | 250 nM |
|  | 318 nM | 460 nM | Cc1nc2c(O)cccc2c(=O)[nH]1 [Compound A, 8-hydroxy-2-methyl-quinazolin-4-[3H]-one] | 400 nM |

From patent US20020142334A1, “Methods of detecting poly(ADP-ribose) polymerase enzymatic activity” (priority 2001, published 2002)
